The test system of data set [1] is ethanol-induced narcosis. It counts as in vivo, male CD1 mice. As to conditions: mouse, in vivo. The text has this:
It is known that administration of ethanol to mice induces a state of narcosis in the animals. […] It is also known that certain compounds can modify the narcotic effect of ethanol in this model.
Animals: Male CD1 mice (Charles-River Co., Portage, Mich.) weighing 25-30 g were used in the experiments. Upon arrival they were caged in groups of 14 and allowed to acclimatize to laboratory conditions for one week before the beginning of the studies. They were fed standard rodent diet with food and water ad libitum.
Duration of sleep time: Mice received intraperitoneal (i.p.) injections of ethanol and either saline or one of the drug treatments. Upon loss of the righting reflex, a timer was started to record the duration of the sleep time until the reflex was recovered. Two types of experiments were conducted to study the effect of drugs before (pre-treatment) or after (post-treatment) the injection of the narcotic dose of ethanol. In the pre-treatment experiments the drugs were injected i.p., 15 minutes before ethanol. In the post-treatment experiments the drugs were administered i.p., 1 minute after the animals lost the righting reflex, which was approximately 5 minutes after administration of ethanol.
Drugs: Ethanol was prepared as a 20% v/v (16% w/v) solution in saline. Based on previous studies, a dose of 87 mmol/kg (4 g/kg) was selected as the narcotic dose. RO 15-4513, the benzodiazepine receptor inverse agonist discussed in the Background section, was purchased from RBI (Natick, Mass.). It was dissolved in saline solution with Tween-80 and ultrasonically homogenized for 3 minutes. […] The compounds of Examples 2 and 4, both novel neuronal nicotinic receptor ligands according to the present invention, were also dissolved in saline to the desired concentrations.

The next data set concerns spike wave discharges. The experiment in a line: Attenuation of petit mal absence-like spike wave discharges (EEG). It counts as in vivo, male Wistar rats. The settings on record: i.p.; 20 min waking immobility; p<0.05 where significant. Here is the method:
Animals: Male albino rats of the Wistar strain (CAMM Research) were maintained on a 12:12 hour light-dark cycle and individually housed throughout these experiments. They were fed standard rodent diet with food and water provided ad libitum.
EEG Recordings: To record spike wave discharges, rats were surgically implanted with permanently affixed EEG electrodes over the frontal codex using previously described techniques (Radek, Brain Res., 1993, in press). After at least a ten day recovery from this surgery, EEG recordings were made inside darkened sound attenuating chambers. Rats were allowed to move freely within the chambers and computerized activity monitors recorded animal motion during these studies. Only those rats that express spike wave discharges, as identified from preliminary recordings, were used to test the effects of nicotinic agents.
Drug studies: EEG recordings were obtained from each rat for a period of 20 minutes of total waking immobility immediately after administration of drug, or a drug-free control solution. Immobility was characterized as the absence of infrared beam interruptions from the activity monitor system. Spike wave activity was identified as regular 6-10 Hz complexes with amplitudes of 0.4 to 1.0 mV. The total spindling duration for 20 minutes of waking immobility was calculated by determining the length (in seconds) of each spike wave burst, and adding each of these times together to obtain a total spindle time for the recording session. Each rat was administered the control solution and one or two doses of the test compounds and each dosing was given at least 48 hours after the previous treatment.
The compound of Example 2 was dissolved in saline to the desired concentration.

For a further data set, the system named is 1-4 Hz slow wave EEG. Kind of data set: 1-4 Hz slow wave EEG amplitude. It is filed as in vivo, male Wistar rats.
In data set [2] the test system is neuronal nicotinic cholinergic channels in PC12 cells. Kind of data set: Cholinergic channel activator action in PC12 cells, whole-cell patch-clamp. It counts as cell-based, rat. The settings on record: PC12 cells; mean ± S.E.M. Here is the method:
Electrophysiologic recordings were obtained from differentiated (neurite-bearing) cells after 4-7 days exposure to NGF. […] After 20 minutes, differentiating medium was added (DMEM containing 100 ng/ml nerve growth factor, 5% heat-inactivated fetal calf serum and 2.5% heat-inactivated horse serum) and the cells were refed with this medium every 3 days.
The intracellular (recording pipette) solution consisted of 140 mM KCl, 1.0 mM CaCl2, 2.0 mM MgCl2, 11 mM K-EGTA, and 10 mM K-HEPES buffer (7.3 pH, 315 mOsm). Osmolarities were adjusted using dextrose such that the extracellular solution was 10 mOsm hypertonic compared to the intracellular solution. Voltage-gated inward (sodium) and outward (potassium) currents were monitored throughout the experiment to determine establishment and maintenance of the whole-cell recording configuration.
Background: In patch-clamp work, channel activity is measured electrically.

Data set [3] deals with retention of the avoidance response. The experiment in a line: Inhibitory avoidance test. It is filed as in vivo. The settings on record: i.p. 15 min before training, retention at 24 h, p<0.05. From the text:
The inhibitory (or sometimes called passive) avoidance (IA) test is a well-accepted animal model for learning/memory and is widely used to assess the activity of novel cognition enhancers in enhancing cognitive function (Wanibuchi et al., Eur. J. Pharmacol., 1990, 187:479). According to this test, animals are placed in the illuminated (12×14×11 cm) portion of a two-chambered box, from which they enter through a guillotine door to the larger (24×13.5×12 cm) dark compartment of the box. Entry to the dark compartment is accompanied by a mild (0.35 mA), brief (2 seconds) footshock. Initial latencies to cross are recorded, with an imposed 60 second ceiling. Following a 24 hour retention interval, animals are returned to the illuminated chamber, and latency to return to the dark compartment is again recorded, with a ceiling of 180 seconds. No footshock is administered on the test day.
Twelve animals were used in each group.

Data set [4] deals with anxiety induced by (-)-nicotine withdrawal. The experiment in a line: Elevated plus-maze 48 hours after withdrawal of 14-day chronic (-)-nicotine. It is filed as in vivo, rats. The text has this:
The mouse elevated plus-maze is a conflict test that probes anxiolytic activity of test compounds (Lister, Psychopharmacology, 1987, 92:180). It is based on the fact that exposure of mice to an elevated open arm leads to an avoidance response considerably stronger than that evoked by exposure to an enclosed arm. Compounds may be tested for their ability to modify the avoidance response of the animal to the open arm maze. […] The effect of such potential anti-anxiety drugs may be tested further in a withdrawal challenge test.
Elevated Plus-Maze: The procedure originally described by Pellow et al., for rats was used, with minor modifications (Pellow et al., J. Neurosci. Meth., 14: 149, 1985). The apparatus consisted of two open arms (50×10 cm) and two enclosed arms (50×10×40 cm) extending from a central platform (10×10 cm). It was mounted on a base raising 50 cm above the floor. Light levels on the open and enclosed arms were similar. The animals were placed in the center of the maze and the time spent in the open arms and the total distance traveled by the rat were recorded automatically by a camera mounted above the apparatus, then analyzed by computer (Videomex™ software, Columbus Instruments, Columbus, Ohio). All animals used were naive to the apparatus. Animals were injected i.p. with saline or the different drug doses, and submitted to the test 30 minutes later. The test lasted 5 minutes, and the apparatus was thoroughly cleaned after removal of the animal.
The pumps were removed on day 14 and the animals were tested in the plus-maze 48 hours later, at the time when a state of withdrawal-induced anxiety was present in the rats. On the test day i.p. doses of either saline or the compound of Example 2 were administered to the animals 30 minutes before the test. Data (Table 13) represent the mean ±SEM time spent in the open arms of the plus-maze of 8-16 rats.

A further data set has as its system effects of ethanol. As to conditions: administered directly into the brain; ethanol i.p.; cited from earlier work.
Data set [5] deals with time spent in the open arms (anxiolytic activity). Kind of data set: Mouse elevated plus-maze. It is filed as in vivo, CD1 mice. As to conditions: i.p., p<0.05; for Elevated Plus-Maze (EPM) result: time in open arms. The text has this:
The mouse elevated plus-maze is a commonly-used conflict test that probes anxiolytic activity of test compounds (Lister, Psychopharmacology, 1987, 92 180). It is based on the fact that exposure of mice to an elevated open arm leads to an avoidance response considerably stronger than that evoked by exposure to an enclosed arm.
The apparatus required to perform this test is made of plywood and consists of two open arms (17×8 cm) and two enclosed arms (17×8×15 cm) extending from a central platform (8×8 cm). It is mounted on a plywood base rising 39 cm above the floor. Mice are released on the central platform and the time spent in the open and enclosed arms is recorded during a 5 minute test period.
The compound of Example 2 (0.0108-1.08 μmol/kg, i.p.) was administered to CD1 mice (n=12 per group) 15 minutes before the test.

In another data set the target is muscarinic receptors. It is filed as binding, rat. The settings on record: Table 2. How it is done:
The potencies of ligand binding at central muscarinic binding sites were determined by analysis of competition with the specific muscarinic receptor radioligand [^3 H]-quinuclidinyl benzilate ([^3 H]-QNB). […] Competition between various concentrations of putative nicotinic ligand compounds and 0.2 nM [^3 H]-QNB was performed at 25° C. in an assay volume of 1 mL. After 75 minutes, the bound radioligand was separated by vacuum filtration on Whatman GF/B glass fiber filters. Non-specific binding was defined as radioactivity remaining in the presence of 10 μM atropine. Competition curves were analyzed for Ki values as described above for binding to the nicotinic receptor.

Data set [6] has as its target neuronal nicotinic receptors. The experiment in a line: Displacement of [3H]-MCC or [3H]-cytisine from neuronal nicotinic receptors, whole rat brain membranes. It counts as binding. How it is done:
Binding of [^3 H]-methylcarbamylcholine ([^3 H]-MCC) or [^3 H]-cytisine ([^3 H]-CYT) to nicotinic receptors was accomplished using crude synaptic membrane preparations from whole rat brain (Snyder and Enna, Brain Research, 1975, 100:81). Washed membranes were stored at -80° C. prior to use. Frozen aliquots were slowly thawed and resuspended in 20 volumes of buffer (containing: 120 mM NaCl, 5 mM KCl, 2 mM MgCl2, 2 mM CaCl2 and 50 mM Tris-Cl, pH 7.4 @4° C). After centrifuging at 20,000 X g for 15 minutes, the pellets were resuspended in 30 volumes of buffer. Homogenate (containing 125-150 μg protein) was added to triplicate tubes containing concentrations of test compound and [^3 H]-MCC (3 nM) in a final volume of 500 μL. Samples were incubated for 60 minutes at 4° C., then rapidly filtered through Whatman GF/B filters presoaked in 0.5% polyethylimine using 3×4 mL of ice-cold buffer. Alternately, homogenate and test compound were incubated for 75 min with [^3 H]-CYT (1.3 nM), then rapidly filtered, as described above. The filters are counted in 4 mL of Ecolume® (ICN). […] IC50 values were determined with the ALLFIT nonlinear least squares curve-fitting program and IC50 values were converted to Ki values using the Cheng and Prusoff correction (Ki =IC50 /(1+[ligand]/Kd of ligand)). Alternately, data were expressed as a percentage of the total specific binding.
A general note: In a radioligand displacement assay an active substance lowers the binding of a labelled ligand.

For data set [7] the following is noted: in vivo; cited from earlier work.
Data set [8] concerns ethanol-induced narcosis. As to conditions: literature knowledge; cited from earlier work.

Where “and” joins values, the source holds several entries; their conditions need not be identical. Equal entries are not always repeated. Entries after “also recorded” stand apart in the source; their conditions may differ. Where two headings read alike, the source gives them in different places.

A word on the EC50: it is the concentration needed to bring the measured effect to its halfway point. High values mean lower potency in that assay, low ones higher potency in that assay. As to `CN1CCCC1c1cccnc1` (single isomer, unassigned; (-)) [(-)-Nicotine], the “effect of pre-treatment on ethanol sleeping time” value in the data set on ethanol-induced narcosis [1] is “significantly reduced the sleeping time of ethanol in mice”. Moreover, in the data set with ethanol-induced narcosis [1] (ip), the Sleeping time was 121 ± 18 % of controls and 149 ± 28 % of controls and 164 ± 32 % of controls and 232 ± 29 % of controls; the “effect of post-treatment on ethanol-induced narcosis” value is on record as “significantly prolonged the narcotic effect of ethanol; also recorded: adversely potentiated the narcotic effect”. The “effect on incidence of spike wave discharges” value with spike wave discharges was “significantly lowered the incidence of spike wave discharges”. The “1-4 Hz amplitude” value in the data set with 1-4 Hz slow wave EEG (1.9 μmol/kg i.p.) is 13.2 ± 2.0 μVolts. In the data set on 1-4 Hz slow wave EEG (i.p.), the “effect on low frequency (1-4 Hz) EEG slow-wave patterns” value is “significant (p<0.05, 2-way ANOVA, Fisher post hoc analysis) attenuation”. The same molecule gave an EC50 in [2] of 52000 ± 4000 nM. For the same molecule, the “Inhibitory Avoidance (IA) result” value in data set [3] is on record as “dose-dependent facilitation of retention of the avoidance response”. For the same molecule, the “Inhibitory Avoidance (IA) result” value in [3] (listed as (-)-nicotine) is on record as “significant”. For the same molecule, in data set [4] (48 h after withdrawal of chronic (-)-nicotine), the “effect on time spent in the open arms” value is given as “significant reduction in the time spent in the open arms”. Also, the “TIME OPEN ARMS” value in [4] (14 days chronic 10 mg/kg/day then withdrawal, saline challenge, *p < 0.05 against chronic saline, mean ± SEM) stood at 35.1 ± 6.0 s. For the same molecule, in the data set with effects of ethanol, the “effect on motor incoordination due to ethanol” value was “significantly attenuate the motor incoordination due to the effects of ethanol”. In [5], the “Elevated Plus-Maze (EPM) doses with significant effect” value fell in the range of 0.62 to 1.9 µmol/kg and the “Elevated Plus-Maze (EPM) result” value was “significant increase in the time spent by the mice in the open arms”. Also, in [5] (listed as (-)-nicotine), the “Elevated Plus-Maze (EPM) result” value was “significant”.

As a reminder, the Ki is a dissociation constant, usually derived from enzyme kinetics or from competition with a known ligand. Regarding `COC(=O)C1=CCCN(C)C1` [Arecoline, reference compound], the Ki was 5000 nM on muscarinic receptors; 59 nM in data set [6] (Table 1, read-out: Nicotinic Receptor Ki); 59 nM in data set [6] (Table 2, read-out: Nicotinic Ki). Besides, the pharmacokinetics result in data set [7] is given as “unfavorable pharmacokinetics”.

Regarding `CN1C(=O)CN=C(c2ccccc2)c2cc(Cl)ccc21` [Diazepam, diazepam], the “effect on incidence of spike wave discharges” value in the data set on spike wave discharges is given as “significantly lowered these discharges”. The “effect on ethanol sleep time (known)” value in the data set on ethanol-induced narcosis [8] is “potentiate the effect of ethanol by increasing the sleep time”.

In the case of `CCCC(C)C1(CC)C(=O)NC(=O)NC1=O` (stereo not shown) [pentobarbital], the “effect on ethanol sleep time (known)” value in the data set with ethanol-induced narcosis [8] is “potentiate the effect of ethanol by increasing the sleep time”.

The values are drawn from patent US5409946A, “Isoxazole, isothiazole and pyrazole compounds that enhance cognitive function” (Abbott Laboratories, priority 1993, dated 1995).
